Key:
Assay type in all cases: physicochemical
[1] = Storage stability at different relative humidities and temperatures in packed bags, XRPD after 1, 2, 3 and 6 months
Experimental: Powder X-ray Diffraction was performed on an X-Ray powder diffractometer Bruker D8 Advance; CuK radiation (λ=1.5418 Å); Lynx eye detector; laboratory temperature 22-25° C.; PMMA specimen holder ring. Prior to analysis, the samples were gently ground by means of mortar and pestle in order to obtain a fine powder. The ground sample was adjusted into a cavity of the sample holder and the surface of the sample was smoothed by means of a cover glass.
Measurement parameters: Scan range: 2-40 degrees 2-theta; Scan mode: continuous; Step size: 0.05 degrees; Time per step: 0.5 s; Sample spin: 30 rpm; Sample holder: PMMA specimen holder ring with silicon low background.
Samples of Delgocitinib polymorph forms according to the disclosure were subjected to conditions of different relative humidities at different temperatures. Forms DL1 was kept in low-density polyethylene bag (twist and tied) covered by triple laminated bag (heat and sealed). Forms DL2, DL3, DL10 and DL11 were kept in low-density polyethylene bag (twist and tied) and covered by triple laminated bag (heat and sealed), while 2 gram silica gel sachet was added in between the two bags.

[2] = Stability to compression (2 tons, hydraulic press), XRPD after 2 minutes; conditions: 2 tons for 2 minutes
Experimental: Powder X-ray Diffraction was performed on an X-Ray powder diffractometer Bruker D8 Advance; CuK radiation (λ=1.5418 Å); Lynx eye detector; laboratory temperature 22-25° C.; PMMA specimen holder ring. Prior to analysis, the samples were gently ground by means of mortar and pestle in order to obtain a fine powder. The ground sample was adjusted into a cavity of the sample holder and the surface of the sample was smoothed by means of a cover glass. Measurement parameters: Scan range: 2-40 degrees 2-theta; Scan mode: continuous; Step size: 0.05 degrees; Time per step: 0.5 s; Sample spin: 30 rpm; Sample holder: PMMA specimen holder ring with silicon low background. Samples of Delgocitinib were subjected to pressures of 2 tons (Atlas® Autopress hydraulic press, set to 2 tons). XRPD analysis was carried out on the samples after 2 minutes.

[3] = Storage stability at different relative humidities at ambient temperature, XRPD after 7 days; conditions: ambient temperature, 7 days
Experimental: Powder X-ray Diffraction was performed on an X-Ray powder diffractometer Bruker D8 Advance; CuK radiation (λ=1.5418 Å); Lynx eye detector; laboratory temperature 22-25° C.; PMMA specimen holder ring. Prior to analysis, the samples were gently ground by means of mortar and pestle in order to obtain a fine powder. The ground sample was adjusted into a cavity of the sample holder and the surface of the sample was smoothed by means of a cover glass. Measurement parameters: Scan range: 2-40 degrees 2-theta; Scan mode: continuous; Step size: 0.05 degrees; Time per step: 0.5 s; Sample spin: 30 rpm; Sample holder: PMMA specimen holder ring with silicon low background. Samples of crystalline forms of Delgocitinib according to the disclosure, were subjected to conditions of different relative humidities at ambient temperature. XRPD analysis was performed on the samples after 7 days.

[4] = Grinding experiments (strong grinding in mortar with pestle for 2 minutes), XRPD after grinding; conditions: about 20 mg ground in mortar with pestle for 2 minutes
Experimental: Powder X-ray Diffraction was performed on an X-Ray powder diffractometer Bruker D8 Advance; CuK radiation (λ=1.5418 Å); Lynx eye detector; laboratory temperature 22-25° C.; PMMA specimen holder ring. Prior to analysis, the samples were gently ground by means of mortar and pestle in order to obtain a fine powder. The ground sample was adjusted into a cavity of the sample holder and the surface of the sample was smoothed by means of a cover glass. Measurement parameters: Scan range: 2-40 degrees 2-theta; Scan mode: continuous; Step size: 0.05 degrees; Time per step: 0.5 s; Sample spin: 30 rpm; Sample holder: PMMA specimen holder ring with silicon low background. Samples of Delgocitinib forms according to the disclosure were subjected to strong grinding. In these experiments, about 20 mg of the sample was placed in a mortar and ground with a pestle for 2 minutes. XRPD analysis was performed on each sample after the grinding experiment (Table 4): […]

Structure (SMILES): C[C@H]1CN(C(=O)CC#N)[C@]12CCN(c1ncnc3[nH]ccc13)C2 [Form DL10, 3-[(3S,4R)-3-methyl-7-(7H-pyrrolo[2,3-d]pyrimidin-4-yl)-1,7-diazaspiro[3.4]octan-1-yl]-3-oxopropanenitrile]
- XRPD after storage at 25° C. at 60% RH ([1]; 1 month, listed as DL10): DL10
- XRPD after storage at 25° C. at 60% RH ([1]; 2 months, listed as DL10): DL10
- XRPD after storage at 25° C. at 60% RH ([1]; 3 months, listed as DL10): DL10
- XRPD after storage at 25° C. at 60% RH ([1]; 6 months, listed as DL10): DL10
- XRPD after storage at 40° C. at 75% RH ([1]; 1 month, listed as DL10): DL10
- XRPD after storage at 40° C. at 75% RH ([1]; 2 months, listed as DL10): DL10
- XRPD after storage at 40° C. at 75% RH ([1]; 3 months, listed as DL10): DL10
- XRPD after storage at 40° C. at 75% RH ([1]; 6 months, listed as DL10): DL10
- XRPD after compression force (2 tons for 2 minutes) ([2]; listed as DL10): DL10
- XRPD after storage at different relative humidities for 7 days ([3]; 20% relative humidity, listed as DL10): DL10
- XRPD after storage at different relative humidities for 7 days ([3]; 40% relative humidity, listed as DL10): DL10
- XRPD after storage at different relative humidities for 7 days ([3]; 60% relative humidity, listed as DL10): DL10
- XRPD after storage at different relative humidities for 7 days ([3]; 80% relative humidity, listed as DL10): DL10
- XRPD after grinding ([4]; listed as DL10): DL10

Structure (SMILES): C[C@H]1CN(C(=O)CC#N)[C@]12CCN(c1ncnc3[nH]ccc13)C2 [Form DL11, 3-[(3S,4R)-3-methyl-7-(7H-pyrrolo[2,3-d]pyrimidin-4-yl)-1,7-diazaspiro[3.4]octan-1-yl]-3-oxopropanenitrile]
- XRPD after storage at 25° C. at 60% RH ([1]; 1 month, listed as DL11): DL11
- XRPD after storage at 25° C. at 60% RH ([1]; 2 months, listed as DL11): DL11
- XRPD after storage at 25° C. at 60% RH ([1]; 3 months, listed as DL11): DL11
- XRPD after storage at 25° C. at 60% RH ([1]; 6 months, listed as DL11): DL11
- XRPD after storage at 40° C. at 75% RH ([1]; 1 month, listed as DL11): DL11
- XRPD after storage at 40° C. at 75% RH ([1]; 2 months, listed as DL11): DL11
- XRPD after storage at 40° C. at 75% RH ([1]; 3 months, listed as DL11): DL11
- XRPD after storage at 40° C. at 75% RH ([1]; 6 months, listed as DL11): DL11
- XRPD after compression force (2 tons for 2 minutes) ([2]; listed as DL11): DL11
- XRPD after storage at different relative humidities for 7 days ([3]; 20% relative humidity, listed as DL11): DL11
- XRPD after storage at different relative humidities for 7 days ([3]; 40% relative humidity, listed as DL11): DL11
- XRPD after storage at different relative humidities for 7 days ([3]; 60% relative humidity, listed as DL11): DL11
- XRPD after storage at different relative humidities for 7 days ([3]; 80% relative humidity, listed as DL11): DL11
- XRPD after grinding ([4]; listed as DL11): DL11
